From the RepoRT retention time repository

Assay: HILIC, Waters Atlantis Premier BEH Z-HILIC, 100 × 2.1 mm, 1.7 µm, 40 °C, 0.15 mL/min, estimated dead time 1.5 min; A: water + 20 mM ammonium carbonate + 5 µM medronic acid; B: 10% water + 90% acetonitrile + 2 mM ammonium carbonate + 0.5 µM medronic acid; gradient (min/%B) 0/90 18/55 18.1/20 21.5/20 22/90 23.5/90 25.5/90
Conditions: stereoisomer not certain

Structure (SMILES)	LC retention time [min]
O=C(CO)C(O)C(O)C(O)COP(=O)(O)O (configuration not stated) [Fructose 6-phosphate]	10.8
CC(=O)SCCNC(=O)CCNC(=O)C(O)C(C)(C)COP(=O)(O)OP(=O)(O)OCC1OC(n2cnc3c(N)ncnc32)C(O)C1OP(=O)(O)O (configuration not stated) [Acetyl-CoA]	10.1
C[N+](C)(C)CC(O)CC(=O)[O-] (configuration not stated) [Carnitine]	9.89
O=P(O)(O)OCC1OC(O)C(O)C(O)C1O (configuration not stated) [Glucose-6-phosphate]	11.7
Nc1ncnc2c1ncn2C1OC(CO)C(O)C1O (configuration not stated) [Adenosine]	3.18
Cc1cc2nc3c(=O)[nH]c(=O)nc-3n(CC(O)C(O)C(O)COP(=O)(O)OP(=O)(O)OCC3OC(n4cnc5c(N)ncnc54)C(O)C3O)c2cc1C (configuration not stated) [FAD]	7.03
O=C(O)CCCCC1SCC2NC(=O)NC21 (configuration not stated) [Biotin]	4.58
O=C(O)CCC(O)C(=O)O (configuration not stated) [2-hydroxy glutaric acid]	9.22
O=P(O)(O)OCC1OC(O)(COP(=O)(O)O)C(O)C1O (configuration not stated) [Fructose-1,6-bisphosphate]	14.8
NC(N)=NCCCC(N)C(=O)O (configuration not stated) [Arginine]	18.4
O=C(O)CC(O)(CC(=O)O)C(=O)O [Citric acid]	12.8
NC(CCC(=O)O)C(=O)O (configuration not stated) [Glutamic acid]	9.23
Nc1ncnc2c1ncn2C1OC(COP(=O)(O)O)C(O)C1O (configuration not stated) [AMP]	9.07
CC(C)(COP(=O)(O)OP(=O)(O)OCC1OC(n2cnc3c(N)ncnc32)C(O)C1OP(=O)(O)O)C(O)C(=O)NCCC(=O)NCCS (configuration not stated) [CoenzymeA]	11.8
Nc1ncnc2c1ncn2C1OC(COP(=O)(O)OP(=O)(O)OP(=O)(O)O)C(O)C1O (configuration not stated) [ATP]	12.9
O=C(O)CCC(=O)C(=O)O [2-Oxoglutaric acid]	8.68
Nc1nc2c(ncn2C2OC(COP(=O)(O)OP(=O)(O)OP(=O)(O)O)C(O)C2O)c(=O)[nH]1 (configuration not stated) [GTP]	15.3
Nc1ncnc2c1ncn2C1OC(COP(=O)(O)OP(=O)(O)O)C(O)C1O (configuration not stated) [ADP]	11.1

Further lines, results first:

LC retention time [min]	Structure (SMILES)
12.7	O=C(O)C(CO)OP(=O)(O)O (configuration not stated) [Phosphoglyceric acid A]
9.92	O=P(O)(O)OCC(O)CO (configuration not stated) [Glycerol-3-phosphate]
9.78	O=C(CO)COP(=O)(O)O [Triose phosphate]
9.49	NC(=O)c1ccc[n+](C2OC(COP(=O)(O)OP(=O)(O)OCC3OC(n4cnc5c(N)ncnc54)C(O)C3O)C(O)C2O)c1 (configuration not stated) [NAD]
6.5	CCC(C)C(N)C(=O)O (configuration not stated) [Isoleucine]
13.1	NC(=O)c1ccc[n+](C2OC(COP(=O)(O)OP(=O)(O)OCC3OC(n4cnc5c(N)ncnc54)C(OP(=O)(O)O)C3O)C(O)C2O)c1 (configuration not stated) [NADP]
18.6	NCCCCC(N)C(=O)O (configuration not stated) [Lysine]
8.31	NC(=O)C1=CN(C2OC(COP(=O)(O)OP(=O)(O)OCC3OC(n4cnc5c(N)ncnc54)C(O)C3O)C(O)C2O)C=CC1 (configuration not stated) [NADH]
3.15	CC(O)C(=O)O (configuration not stated) [Lactic Acid]
12.8	O=C(O)CC(C(=O)O)C(O)C(=O)O (configuration not stated) [Isocitric acid]
9.23	O=C(O)CCC(=O)O [Succinic Acid]
10.3	NC(=O)CCC(N)C(=O)O (configuration not stated) [Glutamine]
7.41	OCC1OC(O)C(O)C(O)C1O (configuration not stated) [Hexose]
6.22	CC(C)CC(N)C(=O)O (configuration not stated) [Leucine]
13.3	NC(=O)C1=CN(C2OC(COP(=O)(O)OP(=O)(O)OCC3OC(n4cnc5c(N)ncnc54)C(OP(=O)(O)O)C3O)C(O)C2O)C=CC1 (configuration not stated) [NADPH]
12.9	C=C(OP(=O)(O)O)C(=O)O [PEP]
9.52	CC(=O)NC1C(OP(=O)(O)OP(=O)(O)OCC2OC(n3ccc(=O)[nH]c3=O)C(O)C2O)OC(CO)C(O)C1O (configuration not stated) [UDP-GlcNAc]
6.42	CCC(=O)OC(CC(=O)[O-])C[N+](C)(C)C (configuration not stated) [carnitine-C3]
3.92	O=C1CC(C(=O)O)NC(=O)N1 (configuration not stated) [dihydroorotic acid]
